Measurements as given in patent publication US5955616A, “Pyrrolidine derivatives having phospholipase A2 inhibitory activity” (Shionogi & Co., Ltd., priority 1995, dated 1999).

Experiments:
[1] = tested on: Prostaglandin E2 production in human fibroblasts; experiment: Inhibition of Production of Prostaglandin E2 in Human Fibroblasts (IL-1 stimulated); format: cell-based; details: Fibroblast, stimulation with IL-1, read-out: Inhibitory activity Against the Production of Prostaglandin E2 in Human Fibroblasts IC50
Procedure: Experiment 2 Inhibition of Production of Prostaglandin E2 in Human Fibroblasts
From this viewpoint, the compounds of the present invention were tested for the effect on the production of prostaglandin E2 by human fibroblasts under the stimulation with IL-1 according to the method of J. M. Dayer et al (CACHECTIN/TUMOR NECROSIS FACTOR STIMULATES COLLAGENASE AND PROSTAGLANDIN E2 PRODUCTION BY HUMAN SYNOVIAL CELLS AND DERMAL FIBROBLASTS; J. M. Dayer, B. Beutlerm and A. Cerami, J. Exp. Med., 162,2163-2168, 1985).

cPLA2 = biological target: T1, cPLA2 (Homo sapiens, UniProt P47712); experiment: cPLA2 Inhibitory activity (release of radiolabelled fatty acid from liposomes); format: biochemical; details: 50 mM HEPES pH 7.4, 1 mM CaCl2, 2.5 μM radio-labeled phosphatidylcholine, 15 min at 37° C; read-out: cPLA2 Inhibition Activity IC50
T1 sequence (P47712 1-749): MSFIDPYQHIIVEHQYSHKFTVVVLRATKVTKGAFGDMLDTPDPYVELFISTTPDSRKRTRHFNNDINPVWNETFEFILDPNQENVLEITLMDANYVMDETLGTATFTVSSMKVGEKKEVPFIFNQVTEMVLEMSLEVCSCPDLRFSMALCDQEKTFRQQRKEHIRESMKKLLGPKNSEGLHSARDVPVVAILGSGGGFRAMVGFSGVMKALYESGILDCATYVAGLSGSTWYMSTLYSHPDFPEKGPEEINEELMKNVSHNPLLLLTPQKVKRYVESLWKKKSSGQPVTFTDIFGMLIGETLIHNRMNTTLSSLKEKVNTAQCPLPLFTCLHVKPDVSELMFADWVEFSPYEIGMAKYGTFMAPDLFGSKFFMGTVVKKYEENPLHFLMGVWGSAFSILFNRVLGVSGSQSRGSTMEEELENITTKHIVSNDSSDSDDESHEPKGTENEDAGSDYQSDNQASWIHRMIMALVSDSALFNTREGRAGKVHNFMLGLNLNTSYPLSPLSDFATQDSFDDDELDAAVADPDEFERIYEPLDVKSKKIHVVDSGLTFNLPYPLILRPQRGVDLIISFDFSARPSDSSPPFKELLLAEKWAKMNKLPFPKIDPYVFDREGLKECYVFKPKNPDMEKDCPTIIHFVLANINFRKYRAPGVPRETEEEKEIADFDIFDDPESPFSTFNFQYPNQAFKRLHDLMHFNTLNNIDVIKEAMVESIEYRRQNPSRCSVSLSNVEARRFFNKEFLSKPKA
Procedure: Experiment 1 cPLA2 Inhibitory activity
The compounds of the present invention was tested for the cPLA2 inhibitory activity by a method known in a literature (R. M. Kramer, E. F. Roberts, J. Manetta and J. E. Putnam, J. Biol. Chem., 268(8), 5268-5272 ([…])), as outlined below.
As a substrate, liposomes which contain 1-palmitoyl-2-[^14 C]-arachidonoyl-sn-glycero-3-phosphocholine and sn-1,2-dioleoylglycerol at the ratio of 2:1 and have treated ultrasonically were used. The substrate was added to a 50 mM HEPES buffer (pH 7.4) (200 μl) containing 1 mM CaCl2, 2 mM dithiothreitol, 150 mM NaCl, 0.1 mg/ml BSA so as to make the concentration of radio-labeled phosphatidylcholine 2.5 μM. To the solution was added a compound of the present invention in DMSO (10 μl) to obtain reaction solutions each containing the test compound at 250 μM, 50 μM, 10 μm, 2 μM, and 0.4 μM. The reaction was allowed to start by adding an enzyme (cPLA2) (4 ng) and continued for 15 min at 37° C.
The amount of fatty acids released by the reaction was measured on a liquid scintillation counter. Control was obtained by conducting the experiment in the same manner except that a compound of the present invention was not added. The inhibitory activity was expressed as percent (%) to the control value, which was used for the calculation of the concentration required for 50% inhibition (IC50, μM).

Structure (SMILES)	IC50 [1] [µM]	IC50 (cPLA2) [µM]
CS[C@H]1C[C@@H](C(=O)Nc2ccc(/C=C3\SC(=S)NC3=O)cc2)N(S(=O)(=O)c2ccc(-c3ccccc3)cc2)C1 [Compound A-45]	1.5	4.8
COc1cc(CS[C@H]2C[C@@H](C(=O)Nc3ccc(/C=C4\SC(=O)NC4=O)cc3)N(S(=O)(=O)c3ccc(-c4ccccc4)cc3)C2)cc(OC)c1OC [Compound A-46]	1.5	7
O=C1NC(=S)S/C1=C\c1ccc(NC(=O)[C@@H]2C[C@H](SCc3ccccc3)CN2S(=O)(=O)c2ccc(Cc3ccccc3)cc2)cc1 [Compound A-48]	8.7	4.9
CN(C)c1cccc2c(S(=O)(=O)N3C[C@@H](SCc4ccccc4)C[C@H]3C(=O)Nc3ccc(/C=C4\SC(=S)NC4=O)cc3)cccc12 [Compound A-52]	2.9	5.6
O=C1NC(=S)S/C1=C\c1ccc(NC(=O)[C@@H]2C[C@H](SCc3ccccc3)CN2S(=O)(=O)Cc2ccc(Br)cc2)cc1 [Compound A-54]	1.1	3.4
O=C1NC(=S)S/C1=C\c1ccc(NC(=O)[C@@H]2C[C@H](SCc3ccccc3)CN2S(=O)(=O)Cc2ccc(F)cc2)cc1 [Compound A-55]	1.1	3.4
N#CCCCOc1ccc(CS[C@H]2C[C@@H](C(=O)Nc3ccc(/C=C4\SC(=S)NC4=O)cc3)N(S(=O)(=O)Cc3ccc(Br)cc3)C2)cc1 [Compound A-56]	0.93	1.9
O=C1NC(=S)S/C1=C\c1cn(NC(=O)[C@@H]2C[C@H](SCc3ccccc3)CN2C(=O)c2ccccc2)c2ccccc12 [Compound A-60]	1.3	6.1
O=C1NC(=S)O/C1=C\c1cn(NC(=O)[C@@H]2C[C@H](SCc3ccccc3)CN2C(=O)c2ccccc2)c2ccccc12 [Compound A-61]	10	1.6
CC(C)(C)OC(=O)N1C[C@@H](SC(c2ccccc2)(c2ccccc2)c2ccccc2)C[C@H]1C(=O)Nc1ccc(/C=C2\OC(=S)NC2=O)cc1 [Compound A-62]	2.2	4.3
O=C1NC(=O)/C(=C/c2ccc(C(=O)NC[C@@H]3C[C@H](SC(c4ccccc4)(c4ccccc4)c4ccccc4)CN3C(=O)CCc3ccccc3)cc2)S1 [Compound B-1]	7.5	0.82
COc1ccc(COC(=O)N2C[C@@H](SCc3cc(C(C)(C)C)c(OC)c(C(C)(C)C)c3)C[C@H]2CNC(=O)c2ccc(/C=C3\SC(=O)NC3=O)cc2)cc1 [Compound B-3]	2.1	1.2
O=C1NC(=O)/C(=C/c2ccc(C(=O)NC[C@@H]3C[C@H](SC(c4ccccc4)(c4ccccc4)c4ccccc4)CN3C(=O)OCc3ccc([N+](=O)[O-])cc3)cc2)S1 [Compound B-4]	4.6	2.4
COC(=O)c1ccc(CS[C@H]2C[C@@H](CNC(=O)c3ccc(/C=C4\SC(=S)NC4=O)cc3)N(C(=O)c3ccccc3)C2)cc1 [Compound B-5]	2	2.2
NC(=O)c1ccc(CS[C@H]2C[C@@H](CNC(=O)c3ccc(/C=C4\SC(=S)NC4=O)cc3)N(C(=O)c3ccccc3)C2)cc1 [Compound B-6]	4.7	31
O=C1NC(=O)C(=Cc2ccc(S(=O)(=O)NC[C@@H]3C[C@H](SCc4ccccc4)CN3C(=O)c3ccccc3)cc2)S1 [Compound B-7]	3.6	9.7

Structure (SMILES)	IC50 [1] [µM]	IC50 (cPLA2) [µM]
CS[C@H]1C[C@@H](C(=O)Nc2ccccc2/C=C2\SC(=O)NC2=O)N(S(=O)(=O)c2ccc(-c3ccccc3)cc2)C1 [Compound C-1]	6.1	30
COC(=O)c1cc(C=C2SC(=O)NC2=O)cc(NC(=O)C2CC(OC(c3ccccc3)c3ccccc3)CN2C(=O)c2ccccc2)c1 (stereo not shown) [Compound C-4]	2	3.2
COC(=O)CCc1cc(C=C2SC(=O)NC2=O)cc(NC(=O)C2CC(OC(c3ccccc3)c3ccccc3)CN2C(=O)c2ccccc2)c1 (stereo not shown) [Compound C-5]	1.2	9.8
O=C1NC(=O)C(=Cc2cc(CCCO)cc(NC(=O)C3CC(OC(c4ccccc4)c4ccccc4)CN3C(=O)c3ccccc3)c2)S1 (stereo not shown) [Compound C-6]	2.3	13
CS[C@H]1C[C@@H](C(=O)Nc2ccc(C(CO)=C3SC(=O)NC3=O)cc2)N(S(=O)(=O)c2ccc(-c3ccccc3)cc2)C1 [Compound D-1]	3.6	22
O=C1NC(=O)C(=C(CO)c2ccc(NC(=O)[C@@H]3C[C@H](SCc4ccccc4)CN3S(=O)(=O)c3ccc(-c4ccccc4)cc3)cc2)S1 [Compound D-2]	5.7	7
O=C1NC(=O)/C(=C/c2ccc(C=CC[C@@H]3C[C@H](SC(c4ccccc4)(c4ccccc4)c4ccccc4)CN3C(=O)CCc3ccccc3)cc2)S1 [Compound E-2]	6	0.46
O=C1NC(=O)/C(=C/c2ccc(CCC[C@@H]3C[C@H](SC(c4ccccc4)c4ccccc4)CN3C(=O)CCc3ccccc3)cc2)S1 [Compound E-4]	1.9	3.7
O=C1NC(=O)/C(=C/c2ccc(C(=O)NC[C@@H]3C[C@H](OCc4ccc(F)cc4F)CN3C(=O)c3ccc(Cn4sccc4=O)cc3)cc2)S1 [Compound H-8]	9.9	3.2
O=C1NC(=O)/C(=C/c2ccc(C(=O)NC[C@@H]3C[C@H](OCc4ccc(-c5ccccc5)cc4)CN3C(=O)c3ccc(Cn4sccc4=O)cc3)cc2)S1 [Compound H-9]	9.6	2
O=C1NC(=O)/C(=C/c2ccc(C(=O)NC[C@@H]3C[C@H](OC(c4ccccc4)c4ccccc4)CN3C(=O)c3ccc(CN4CCCC4=O)cc3)cc2)S1 [Compound H-10]	2.4	10
N#CC(=S)Nc1ccc(C(=O)N2C[C@@H](OC(c3ccccc3)c3ccccc3)C[C@H]2CNC(=O)c2ccc(/C=C3\SC(=O)NC3=O)cc2)cc1 [Compound H-11]	8.5	4.3
CC(=O)Oc1ccc(O)cc1CCCCCCC(=O)N1C[C@@H](OC(c2ccccc2)c2ccccc2)C[C@H]1CNC(=O)c1ccc(/C=C2\SC(=O)NC2=O)cc1 [Compound H-16]	1.9	4.3
O=C1C=CC(=O)C(CCCCCCC(=O)N2C[C@@H](OC(c3ccccc3)c3ccccc3)C[C@H]2CNC(=O)c2ccc(/C=C3\SC(=O)NC3=O)cc2)=C1 [Compound H-17]	7	4.9
O=C1NC(=O)/C(=C/c2ccc(C(=O)NC[C@@H]3C[C@H](OCc4ccc(F)cc4F)CN3C(=O)CCCCCCC3=CC(=O)c4ccccc4C3=O)cc2)S1 [Compound H-18]	1.5	11
O=C1NC(=O)C(=Cc2ccc(C(=O)NC[C@@H]3C[C@H](NC(=O)c4ccc(Cn5sccc5=O)cc4)CN3S(=O)(=O)c3ccc(-c4ccccc4)cc3)cc2)S1 [Compound J-2]	9.7	2.9
